Data as given in publication PMC11137182, “Selective and brain-penetrant ACSS2 inhibitors target breast cancer brain metastatic cells” (Frontiers in Pharmacology, 2024).

Columns and labels:
[1] = test system: brain slices not containing tumors; test: MTS cell viability of brain slices without tumor; parameters: species or system mice; conditions: 100 μM, day 6, MTS assay
Protocol: (§1) Ex vivo brain slice tumor model was performed as previously described ([Ciraku et al., 2021]). Briefly, Nu/Nu athymic 4–6 week old mice Charles River Laboratories (Wilmington, MA, United States) were immobilized using the Just for Mice Stereotaxic Frame (Harvard Apparatus, Holliston, MA, United States) and injected intracranially with 5uL of 20,000 cells/uL solution of luciferase tagged MDA-MB-231BR or 4T1BR cells. Tumor growth was monitored via bioluminescence imaging on the IVIS system (Perkin Elmer, Waltman, MA, United States). Organotypic hippocampal cultures were prepared as described previously ([Ciraku et al., 2021]). Briefly, adult mice (4–6 weeks) or mice after 12 days following intracranial injection were decapitated and their brains rapidly removed into ice-cold (4°C) sucrose-aCSF composed of the following (in mM): 280 sucrose, 5 KCl, 2 MgCl2, 1 CaCl2, 20 glucose, 10 HEPES, 5 Na^+-ascorbate, 3 thiourea, 2 Na^+-pyruvate; pH = 7.3. […] Tumor growth was monitored via bioluminescence imaging on the IVIS 200 system (Perkin Elmer), and results were analyzed using Living Image software (Caliper Life Sciences, Waltham, MA, United StatesUnited States). […] Tissues were incubated at 37 ℃ , 5% CO2 for 4 h, and absorbance at 490 nm was measured with a Tecan Spark Microplate reader.

MDR1 (P-gp) = test: Bi-directional permeability across MDR1-MDCK cell monolayer (BBB assay); assay type: in vitro ADME, canine; conditions: dog, MDR1-MDCK I monolayer
Excerpt: (§2) This assay provides the apparent permeability coefficient (Papp), efflux ratio, and % recovery to assess compound permeation.

MDR1-MDCK cells = test: as above; assay type: in vitro ADME, canine; conditions: MDR1-MDCK BBB assay
Excerpt: as §2

[2] = test system: 4T1BR tumor bearing brain slices; test: Ex vivo tumor-brain slice model; parameters: species or system nu/nu mice; conditions: 4T1BR brain slices, 100 μM, 6 days, bioluminescence
Protocol: as §1

[3] = test system: MDA-MB-231BR tumor bearing brain slices; test: Ex vivo tumor-brain slice model; parameters: species or system Nu/Nu mice; conditions: MDA-MB-231BR brain slices, 100 μM, 6 days, bioluminescence
Protocol: as §1

[4] = Human liver microsome stability; conditions: human, liver microsomes
[5] = test system: MDA-MB-231BR tumor bearing brain slices; test: Ex vivo tumor-brain slice model with irradiation; parameters: species or system nu/nu mice; conditions: 6 days
Protocol: as §1

N[C@H](C(=O)N1CCCC(c2ccccc2)(c2ccccc2)C1)C1CC1 [AD-8007]
cell viability of brain slices without tumor [1]: did not alter cell viability
Papp A→B (MDR1 (P-gp); A to B): 2.81 ×10⁻⁶ cm/s
Papp B→A (MDR1 (P-gp); B to A): 25.2 ×10⁻⁶ cm/s
efflux ratio (in words) (MDR1-MDCK cells): low efflux ratio
permeability (in words) (MDR1-MDCK cells): moderate permeability
tumor growth of preformed tumors ex vivo [2]: significantly reduced tumor growth of preformed tumors
tumor growth of preformed tumors ex vivo [3]: significantly reduced tumor growth of preformed tumors
CLint scaled [4]: < 8.6 mL/min/kg
microsomal CLint [4]: < 9.6 µL/min/mg
half-life ([4]; Human Liver Microsome Stability T1/2, human liver microsomes): > 2.42 h
preformed BCBM tumors ex vivo, combination with radiation ([5]; 20 μM plus one dose of 6 Gy): significantly reduced preformed BCBM tumors
BCBM cell growth ex vivo, drug alone ([5]; suboptimal dose 20 µM, no irradiation): little effect on BCBM cell growth
